Like-named read-outs stand apart in the source and are kept apart here.
What was measured:
[1] = target: MERS-CoV-3CL (Middle East respiratory syndrome-related coronavirus, UniProt K9N7C7); format: cell-based
[2] = target: Bat-CoV-HKU4-3CL (Bat coronavirus HKU4, UniProt P0C6W3); format: cell-based
[3] = target: HCoV-HKU1-3CL (Human coronavirus HKU1, UniProt P0C6X2); format: cell-based
[4] = target: T1, SARS-CoV-2-3CL (Severe acute respiratory syndrome coronavirus 2, UniProt P0DTD1); format: cell-based
[5] = target: Bat-CoV-HKU9-3CL (Bat coronavirus HKU9, UniProt P0C6W5); format: cell-based
[6] = test system: Bat-SV-CoVZC45-3CL; format: cell-based, Bat SL-CoVZC45
[7] = target: HCoV-NL63-3CL (Human coronavirus NL63, UniProt P0C6X5); format: cell-based
[8] = test system: BWCoV-SW1-3CL; format: cell-based, Beluga whale coronavirus SW1
[9] = target: HCoV-229E-3CL (Human coronavirus 229E, UniProt P0C6X1); format: cell-based
[10] = target: HAV-3C (Human hepatitis A virus genotype IB, UniProt P08617); format: cell-based
[11] = target: SARS-CoV-3CL (Severe acute respiratory syndrome coronavirus, UniProt P0C6X7); format: cell-based
[12] = test system: SV-A-3C; format: cell-based, Salivirus
[13] = target: T1, SARS-CoV-2-3CL; assay: cell-based
[14] = target: T2, SARS-CoV-2 PLP (Severe acute respiratory syndrome coronavirus 2, UniProt P0DTD1); format: biochemical
[15] = target: T2, SARS-CoV-2 PLP; assay: biochemical
[16] = test system: SARS-CoV-2; assay: microbe, parasite or virus in culture; format: cell-based; settings: Severe acute respiratory syndrome coronavirus 2, 24 h, read-out: A549-C3 (ACE2/TMPRSS2) IC50, inhibition of SARS-CoV-2 viral replication
[17] = target: T3, SARS-CoV-PLP (Severe acute respiratory syndrome coronavirus, UniProt P0C6X7); assay: cell-based
[18] = target: T4, Bat-SL-CoVZC45-PLP (Bat SARS-like coronavirus, UniProt A0A2R3SV02); format: cell-based
[19] = test system: LGTV-NS2B-GS-NS3
[20] = target: T4, Bat-SL-CoVZC45-PLP; format: cell-based; remark: listed apart in the source
[21] = test system: POWV-NS2B-GS-NS3; format: cell-based, tick-borne Powassan virus
[22] = target: T3, SARS-CoV-PLP; format: cell-based
[23] = target: CV-B3-3C (Coxsackievirus B3, UniProt P03313); format: cell-based
[24] = test system: SARS-CoV-2; assay: microbe, parasite or virus in culture; format: cell-based; settings: Severe acute respiratory syndrome coronavirus 2, Huh-7, 24 h, read-out: IC50, inhibition of SARS-CoV-2 viral replication in Huh7 cells
[25] = target: HIV-2-PR (Human immunodeficiency virus type 2 subtype A, UniProt P04584); format: cell-based
[26] = target: HIV-1-PR (Human immunodeficiency virus type 1 group M subtype B, UniProt P04585); format: cell-based
[27] = target: SARS-CoV-2 3CL protease (Severe acute respiratory syndrome coronavirus 2, UniProt P0DTD1); assay: Biochemical inhibition of peptide cleavage by purified SARS-CoV-2 3CL protease (fluorogenic)
[28] = test system: SARS-CoV-2; format: cell-based
[29] = target: MERS-CoV-PLP (Middle East respiratory syndrome-related coronavirus, UniProt K9N7C7); format: cell-based
[30] = target: T2, SARS-CoV-2 PLP; format: cell-based
[31] = target: T2, SARS-CoV-2 PLP; format: cell-based; remark: listed apart in the source

Molecule: CN(C(=O)c1ccncc1)c1ccccc1 [NSC204976]
- magratio [1]: 0.3045

Molecule: O=C(Oc1cncc(Cl)c1)c1cccs1 [MAC-5576, reference compound]
- magratio [2]: 0.8566
- magratio [3]: 1.559
- magratio [4]: 0.9818
- magratio [5]: 1.805
- magratio [6]: 1.703
- magratio [7]: 1.688
- magratio [1]: 1.133
- magratio [8]: 1.841
- magratio [9]: 1.36
- magratio [10]: 0.7585
- magratio [11]: 2.282
- magratio [12]: 1.579

Molecule: CCOC(=O)c1c(NC(=S)NC)sc2c1CCCC2 [NSC280492]
- magratio [2]: 0.288

Molecule: O=C(Oc1ccc2ccc(=O)oc2c1)c1cccs1 [CB6762077]
- EC50 [13]: 7.7 µM
- magratio [2]: 0.7004
- magratio [3]: 0.5727
- magratio [4]: 0.436
- magratio [5]: 0.9258
- magratio [6]: 0.28
- magratio [7]: 0.351
- magratio [8]: 0.4066
- magratio [9]: 0.2867
- magratio [10]: 0.356
- magratio [11]: 0.6861

Molecule: CNC(=O)Oc1c(OC(C)C)ccnc1C [MAVDA-B-217]
- trend in IC50 as a function of pre-incubation time with SARS-CoV-2 PLP [14]: downward trend in IC50
- IC50 [15]: 5.8 µM
- IC50 [16]: 49.8 µM
- EC50 [17]: 0.4 to 1.7 µM

Molecule: CCOC(=O)C(=O)Cc1nc2ccccc2s1 [NSC38490]
- magratio [1]: 0.2455

Molecule: Cc1ccc(S)cc1.[Pb] [MAVDA-B-191]
- activity in the yeast assay for Bat SL-CoVZC45 PLP [18]: inactive
- activity in the yeast assay for SARS-CoV PLP [17]: inactive

Molecule: N#Cc1c(N)nc(N)nc1Nc1ccc(Br)cc1 [NSC71866]
- magratio [19]: 0.2846
- magratio [12]: 0.2095

Molecule: Cc1cc2c(cc1C)N(C(=O)CCl)CC(=O)N2 [NSC138389]
- magratio [2]: 0.217
- magratio [3]: 0.303
- magratio [20]: 0.922
- magratio [4]: 0.2809
- magratio [6]: 0.2787
- magratio [19]: 0.3021
- magratio [21]: 0.5885
- magratio [8]: 0.6472
- magratio [22]: 0.5699

Molecule: CCOc1ccnc(C)c1OC(=O)NC [MAVDA-B-190]
- trend in IC50 as a function of pre-incubation time with SARS-CoV-2 PLP [14]: downward trend in IC50
- IC50 [15]: 14.2 µM
- IC50 [16]: > 50 µM
- EC50 [17]: 0.4 to 1.7 µM

Molecule: COc1cc(O)c(C(=O)/C=C/c2ccccc2)c(OC)c1 [NSC51351]
- magratio [3]: 0.2725
- magratio [12]: 0.2675

Molecule: CNC(=O)Oc1c(OCc2ccccc2)ccnc1C [MAVDA-B-201]
- trend in IC50 as a function of pre-incubation time with SARS-CoV-2 PLP [14]: downward trend in IC50
- IC50 [15]: 9.8 µM
- IC50 [16]: 41.2 µM
- EC50 [17]: 0.4 to 1.7 µM

Molecule: NC(N)=NC(=S)Nc1ccc(Cl)cc1 [NSC403374]
- magratio [4]: 0.7395
- magratio [6]: 0.2507
- magratio [11]: 0.3199

Molecule: CNCC(N)=O.Cl [MAVDA-B-195]
- activity in the yeast assay for Bat SL-CoVZC45 PLP [18]: inactive
- activity in the yeast assay for SARS-CoV PLP [17]: inactive

Molecule: O=C(c1ccccc1)C(c1ccccc1)(c1ccccc1)c1ccccc1 [MAVDA-B-194]
- activity in the yeast assay for Bat SL-CoVZC45 PLP [18]: inactive
- activity in the yeast assay for SARS-CoV PLP [17]: inactive

Molecule: CCc1cc(=O)oc2cc(OC(=O)c3ccco3)ccc12 [CB6728297]
- EC50 [13]: 5.6 µM
- magratio [2]: 0.5386
- magratio [3]: 0.5819
- magratio [4]: 0.9863
- magratio [5]: 0.9832
- magratio [6]: 0.6214
- magratio [7]: 0.2557
- magratio [1]: 0.4038
- magratio [8]: 0.3619
- magratio [9]: 0.2941
- magratio [10]: 0.4338
- magratio [23]: 0.2591
- magratio [11]: 1.394

Molecule: CNC(=O)Oc1c(OCC2CCCCC2)ccnc1C [MAVDA-B-219]
- trend in IC50 as a function of pre-incubation time with SARS-CoV-2 PLP [14]: downward trend in IC50
- IC50 [24]: 16.3 µM
- IC50 [15]: 3.5 µM
- IC50 [16]: 14.9 µM
- EC50 [17]: 0.4 to 1.7 µM

Molecule: Cc1cccc(C)c1OCC(=O)N[C@@H](Cc1ccccc1)[C@@H](O)C[C@H](Cc1ccccc1)NC(=O)[C@H](C(C)C)N1CCCNC1=O [Lopinavir]
- magratio [25]: 0.9971
- magratio [26]: 1.188

Molecule: S=c1[nH]c2ccccc2n2cccc12 [NSC246415]
- magratio [2]: 0.2265

Molecule: N#CCS(=O)(=O)c1cccc[n+]1[O-] [NSC361056]
- magratio [8]: 0.7101

Molecule: O=C(Oc1ccc2ccc(=O)oc2c1)c1ccco1 [CB6778425]
- EC50 [13]: 0.782 µM
- magratio [2]: 0.5241
- shift of IC50 upon pre-incubation with SARS-CoV-2 3CL ([27]; addition of substrate at 0 and 20 minutes): shifts to lower IC50s
- IC50 ([27]; biochemical fluorogenic assay, read-out: IC50, purified SARS-CoV-2 3CL protease): 0.062 µM
- magratio [3]: 0.7283
- magratio [4]: 0.6675
- magratio [5]: 0.8169
- magratio [6]: 0.8357
- magratio [7]: 0.4867
- magratio [1]: 0.8027
- magratio [8]: 0.6941
- activity within a live virus setting [28]: minimal activity
- magratio [9]: 0.4915
- magratio [10]: 0.5812
- magratio [11]: 0.5878

Molecule: Cc1cc(N(C)C)ccc1N=Nc1ccc2ncccc2c1 [NSC680516]
- magratio [29]: 0.228

Molecule: GRL0617 [reference compound]
- response of the SARS-CoV-2 PLP yeast model [30]: blunted response

Molecule: CCSc1nc(=S)cc(C)[nH]1 [NSC67307]
- magratio [1]: 0.2279

Molecule: CNC(=O)Oc1c(OC)ccnc1C [MAVDA-B-116]
- trend in IC50 as a function of pre-incubation time with SARS-CoV-2 PLP [14]: downward trend in IC50
- IC50 [15]: 18.1 µM
- IC50 [16]: 16.6 µM
- EC50 [17]: 0.4 to 1.7 µM

Molecule: CNC(=O)Oc1c(C)[nH]ccc1=O [NSC287495]
- response of the SARS-CoV-2 PLP yeast model [30]: relatively weak response
- magratio [20]: 0.8718
- magratio [29]: 0.4201
- magratio [31]: 0.3486
- EC50 [17]: 22.8 µM
- magratio [22]: 0.9749

Reference: paper PMC11790949, “A multiplex method for rapidly identifying viral protease inhibitors” (Molecular Systems Biology, 2025)
